In brackets after ≈: the same amount, converted by molar mass.
Columns and labels:
[1] = system: T cells / MDSCs; assay: Promotion of T cell proliferation in a co-culture model of MDSCs and T cells; type: cell-based, mouse; settings: for T cell proliferation in MDSC-T cell co-culture: result in words; for activation at 1 µM: Mus musculus, T-cell, 12 h, read-out: T-cell proliferation rate (%), 1 μM, MDSCs treated 12 hours, co-culture of MDSCs and T cells, compared to the control group
Summary of the method: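 Bone-marrow MDSCs, after compound treatment, were co-cultured 48 h at 1:1 with CFDA-SE-labelled (10 μM solution), activated splenic T cells. Proliferation of CD3+ T cells was read by flow cytometry.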

[2] = system: MDSCs; assay: Inhibition of MDSC chemotaxis (Transwell, tumor-conditioned medium); type: cell-based, mouse; design: inhibition of MDSC chemotaxis compared to Arg: dose or concentration left out as unconfirmed; settings: for inhibition at 1 µM / inhibition at 10 µM: Mus musculus, read-out: Suppression Rate (MDSC chemotaxis); for inhibition of MDSC chemotaxis compared to Arg: result in words
Experimental: Hepa1-6 mouse hepatocellular carcinoma cells were uniformly seeded into 6-well plates. After cells reached confluence, supernatant was aspirated, and 1-1.5 mL fresh medium was added to each well. Following 24 h culture, supernatant was collected, centrifuged at 1600 rpm for 5 min, aspirated, and filtered through a 0.22 μm membrane to obtain tumor-conditioned medium for subsequent use. […] Under sterile conditions, remove the tibia, cut both ends of the bone, and aspirate the bone marrow into a 1 mL syringe. Repeat flushing into a 15 mL centrifuge tube. Centrifuge at 1600 rpm for 5 min to collect bone marrow cells. Wash twice with 1×PBS. […] Count cells, adjust density to 1×10^6 cells/mL, and uniformly seed into 24-well plates at 300 μL per well. […] Centrifuge at 1600 rpm for 5 min, remove supernatant, resuspend cells in 300 μL fresh medium, and place into Transwell chambers. […] Co-culture for 24 h.

[3] = system: CCR2 mRNA; assay: Inhibition of CCR2 mRNA level in MDSCs; type: cell-based; settings: Mus musculus, 2 h, read-out: Suppression Rate (inhibition of CCR2 mRNA levels)
Experimental: Under sterile conditions, the tibia was removed, both ends of the bone were cut, and bone marrow was repeatedly flushed into a 15 mL centrifuge tube using a 1 mL syringe filled with culture medium. Centrifuge at 1600 rpm for 5 min to collect bone marrow cells. […] Count cells and adjust density to 1×10^6 cells/mL in complete medium. Seed cells uniformly into 6-well plates at 2 mL per well. […] After incubation, collect cells into centrifuge tubes, centrifuge at 1600 rpm for 5 min, wash once with 1×PBS, and add 500 μL RNA extraction reagent to each tube. After centrifugation to obtain the pellet, add 20 μL DEPC-treated water to each tube to dissolve the pellet. Determine RNA concentration and reverse transcribe to cDNA. Add the cDNA, primers, and […] to a 96-well plate. Centrifuge at 4000 rpm for 5 min, then place in a PCR instrument for detection.

[4] = Water solubility testing of compounds (HPLC); settings: deionized water, 37 °C
[5] = system: serum ALT and AST; assay: CCl4-induced acute liver injury, serum ALT and AST; type: in vivo, C57BL/6 mice; settings: 200 mg/kg
Experimental: (§1) They were acclimated for 7 days before use in experiments.
(§2) Mice were randomly assigned to groups. One group was arbitrarily designated as the normal group, while the remaining groups served as model group, Compound 1 group, Hydrochloride 20 group, Fumarate 21 group, and Silibinin group, with 6 mice per group. Except for the normal group receiving 10 mL olive oil/kg via injection, all other mice received 0.5 mL CCl4+9.5 mL olive oil/kg body weight via intraperitoneal injection, maintaining a CCl4 to olive oil ratio of 1:19. Starting from day 1 of modeling, Compound 1, Hydrochloride 20, and Fumarate 21 were administered orally for 3 consecutive days.
(§3) The blood was allowed to stand at room temperature for 2 hours, then centrifuged at 3000 rpm for 20 minutes. Serum was aspirated, aliquoted, and stored at −70° C. for future use. After blood collection, euthanize mice by cervical dislocation. Perform laparotomy to remove the liver. Rinse twice with pre-chilled PBS. Excise the left hepatic lobe tissue. […] Store remaining tissue at −70° C. for future use.
Serum AST and ALT Assay: Use 10 μL of each sample for testing. Determine mouse serum AST and ALT levels according to the operating manual. Measure absorbance at 510 nm using an enzyme-linked immunosorbent assay (ELISA) reader. Calculate sample concentration (U/L) based on the standard curve.
(§4) Data Statistics: All data are expressed as means f standard error of the mean (S.E.M.). Differences were analyzed for significance using analysis of variance (ANOVA). For groups showing significant differences in ANOVA, one-way ANOVA followed by Dunnett's test was performed to compare intergroup differences.

[6] = system: fibrosis-related factors (Acta2, Col1a1, Tgfb1) in liver tissue; assay: CCl4-induced acute liver injury, liver fibrosis-related factor mRNA; type: in vivo, C57BL/6 mice; design: unit not given here; settings: 200 mg/kg
Experimental: as §1, §2, §3
Q-PCR Analysis: Tissue total RNA extraction, cDNA synthesis, and PCR amplification methods are identical to Example 4. Additional primer information is as follows:
as §4

| solubility ([4]; water, Water-solubility) | Compound | T-cell proliferation rate (%) ([1]; 1 μM, MDSCs treated 12 hours, co-culture of MDSCs and T cells, compared to the control group) | T cell proliferation in MDSC-T cell co-culture ([1]; 1 μM) | inhibition at 1 µM [2] | inhibition at 10 µM [2] | inhibition at 1 µM [3] | inhibition at 10 µM [3] | Water-solubility [4] | activation at 1 µM [1] | inhibition of MDSC chemotaxis compared to Arg [2] | ALT [5] | AST [5] | Acta2 mRNA expression, liver [6] | Col1a1 mRNA expression, liver [6] | Tgfb1 mRNA expression, liver [6] |
| --- | --- | --- | --- | --- | --- | --- | --- | --- | --- | --- | --- | --- | --- | --- | --- |
|  | C=C1C(=O)O[C@H]2[C@H]1CCC(C)=C1CC[C@@](C)(OC(=O)NCCN3CCOCC3)[C@@H]12 [Compound 78] | +++ (T-cell proliferation rate >40% compared to the control group) | significantly enhanced T-cell proliferation | 29% | 67.1% | 23% | 52.7% | 200 µg/mL |  |  |  |  |  |  |  |
| 148 µg/mL (≈ 428 µM) | C=C1C(=O)O[C@H]2[C@H]1CCC(C)=C1CC[C@@](C)(OC(=O)N3CCCC3)[C@@H]12 [Compound 82] |  | significantly enhanced T-cell proliferation | 38.5% | 77.6% | 28.5% | 74.4% |  | > 40% | superior inhibition rates |  |  |  |  |  |
|  | C=C1C(=O)O[C@H]2[C@H]1CCC(C)=C1CC[C@@](C)(OC(=O)N3CCCCC3)[C@@H]12 [Compound 83] |  | significantly enhanced T-cell proliferation | 29.4% | 75.9% | 17% | 70% | 152 µg/mL | > 40% | superior inhibition rates |  |  |  |  |  |
|  | Silybin [reference compound] |  |  |  |  |  |  |  |  |  | 121.58 ± 15.45 U/L | 301.45 ± 38.44 U/L | 2.91 ± 0.48 | 1.84 ± 0.17 | 1.11 ± 0.08 |

Reference: US20260315434A1, “USE OF GUAIACOL SESQUITERPENE LACTONE DERIVATIVES” (NANJING UNIVERSITY OF CHINESE MEDICINE, priority 2023, published 2026)
